Experimental findings from patent publication US20250171461A1, “STIMULATOR OF INTERFERON GENES (STING) MODULATORS, AND COMPOSITIONS AND METHODS THEREOF” (Geode Therapeutics Inc., priority 2022, published 2025) are described below.

The test deals with T1, human HAQ STING isoform (hSTING HAQ) (Homo sapiens, UniProt Q86WV6, G230A/H232R/R293Q/R71H).
T1 construct: THP1 cells express the naturally occurring human HAQ STING isoform (hSTING HAQ); host or cells: THP1
T1 sequence (Q86WV6 whole entry R71H/G230A/H232R/R293Q, canonical isoform): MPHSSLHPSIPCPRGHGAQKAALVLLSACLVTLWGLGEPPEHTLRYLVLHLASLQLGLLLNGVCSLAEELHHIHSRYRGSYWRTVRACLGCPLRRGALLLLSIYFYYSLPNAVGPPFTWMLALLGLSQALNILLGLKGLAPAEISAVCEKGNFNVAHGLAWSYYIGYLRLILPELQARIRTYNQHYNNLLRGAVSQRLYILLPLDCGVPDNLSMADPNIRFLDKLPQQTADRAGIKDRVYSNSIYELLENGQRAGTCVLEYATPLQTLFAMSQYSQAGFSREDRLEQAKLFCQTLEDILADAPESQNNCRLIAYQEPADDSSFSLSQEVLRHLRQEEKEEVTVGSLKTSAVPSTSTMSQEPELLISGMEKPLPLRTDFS
Description: IFN-β mRNA level in THP1 cells (qPCR, STING agonist cellular activity). It is filed as cell-based. The settings on record: compound at 3.6 μM, 2 hrs, IFNβ expression normalized against GAPDH by the 2^-ΔΔCT method, DMSO = 1.0. The method, then:
Cellular activity of STING agonists was determined by mRNA levels of IFN-β in THP1 (Otwo Biotech HTX1621) cell line. THP1 cells express the naturally occurring human HAQ STING isoform (hSTING HAQ), which responses to the activation of STING agonists.
THP1 cells were seeded into Falcon 12-well cell Culture Plate (Corning #353043) at 9×10^5 cells per well, in 1 ml complete culture medium (RPMI-1640, GIBCO #C1187500BT) containing 10% heat inactivated FBS (GIBCO #10099141C), 1% Pen-Strep (HyClone SV30010) and incubated at 37° ΔC, 5% CO2 overnight. On day 2, compound (final concentration at 3.6 μM) or DMSO (0.1%, Sigma Aldrich #8418) was added to THP1 cells and further incubated for 2 hrs min at 37° ΔC, 5% CO2. Cells were then collected for RNA extraction.
Total RNA was extracted with TRIzol reagent (Invitrogen #15596026) and […] was used to synthesize first-strand cDNA with Maxima First Strand cDNA Synthesis Kit (TAKARA #RR036A). Quantitative PCR was performed with Maxima SYBR Green qPCR Master Mix (ABI #4367659, USA). The primer sequences used were as follows: GAPDH (5′-[…]-3′, 5′-[…]-3′). INFP3 (5′-[…]-3′,5′-[…]-3′) Real-time PCR was performed on QuantStudio™ 5 Real-Time PCR System (Thermo Fisher). Relative expression levels of IFNβ gene were normalized against the level of GAPDH expression by the 2^−ΔΔCT method. Each PCR reaction was performed in triplicates.
In general terms: Real-time PCR tracks product formation cycle by cycle.
For `COc1cc(CN(Cc2cn3c4c(c(N5CCN(C)C(C)C5)c(F)cc4c2=O)OCC3C)[C@H]2CCCN(c3ccc(N)nc3)C2)ccn1` (stereo partly drawn) [Compound 32, 6-((((S)-1-(6-aminopyridin-3-yl)piperidin-3-yl)((2-methoxypyridin-4-yl)methyl)amino)methyl)-10-(3,4-dimethylpiperazin-1-yl)-9-fluoro-3-methyl-2H-[1,4]oxazino[2,3,4-ij]quinolin-7(3H)-one], the “Relative mRNA INFβ/GAPDH THP 1” value was determined as 814.9. Consider `COc1cc(CN(Cc2cn3c4c(c(N5CCc6ccccc6C5)c(F)cc4c2=O)OCC3C)[C@H]2CCCN(c3ccc(N)nc3)C2)ccn1` (stereo partly drawn) [Compound 33, 6-((((S)-1-(6-aminopyridin-3-yl)piperidin-3-yl)((2-methoxypyridin-4-yl)methyl)amino)methyl)-10-(3,4-dihydroisoquinolin-2(1H)-yl)-9-fluoro-3-methyl-2H-[1,4]oxazino[2,3,4-ij]quinolin-7(3H)-one], for which the “Relative mRNA INFβ/GAPDH THP 1” value turned out to be 849.2. Next, `COc1cc(CN(Cc2cn3c4c(c(N5CCC(N)C5)c(F)cc4c2=O)OCC3C)[C@H]2CCCN(c3ccc(N)nc3)C2)ccn1.Cl` (stereo partly drawn) [Compound 34, 6-((((S)-1-(6-aminopyridin-3-yl)piperidin-3-yl)((2-methoxypyridin-4-yl)methyl)amino)methyl)-10-(3-aminopyrrolidin-1-yl)-9-fluoro-3-methyl-2H-[1,4]oxazino[2,3,4-ij]quinolin-7(3H)-one Hydrochloride]: 54.8. The figure for `COc1cc(CN(Cc2cn3c4c(c(N5C[C@@H](C)N[C@@H](C)C5)c(F)cc4c2=O)OCC3C)[C@H]2CCCN(c3ccc(N)nc3)C2)ccn1` (stereo partly drawn) [Compound 35, 6-((((S)-1-(6-aminopyridin-3-yl)piperidin-3-yl)((2-methoxypyridin-4-yl)methyl)amino)methyl)-10-((3S,5R)-3,5-dimethylpiperazin-1-yl)-9-fluoro-3-methyl-2H-[1,4]oxazino[2,3,4-ij]quinolin-7(3H)-one] is 3791.8; for `COc1cc(CN(Cc2cn3c4c(c(N5CCC(N6CCOCC6)CC5)c(F)cc4c2=O)OCC3C)[C@H]2CCCN(c3ccc(N)nc3)C2)ccn1` (stereo partly drawn) [Compound 36, 6-((((S)-1-(6-aminopyridin-3-yl)piperidin-3-yl)((2-methoxypyridin-4-yl)methyl)amino)methyl)-9-fluoro-3-methyl-10-(4-morpholinopiperidin-1-yl)-2H-[1,4]oxazino[2,3,4-ij]quinolin-7(3H)-one] it is 9395.6. Next, `COc1cc(CN(Cc2cn3c4c(c(N5CCCCC5C)c(F)cc4c2=O)OCC3C)[C@H]2CCCN(c3ccc(N)nc3)C2)ccn1` (stereo partly drawn) [Compound 37, 6-((((S)-1-(6-aminopyridin-3-yl)piperidin-3-yl)((2-methoxypyridin-4-yl)methyl)amino)methyl)-9-fluoro-3-methyl-10-(2-methylpiperidin-1-yl)-2H-[1,4]oxazino[2,3,4-ij]quinolin-7(3H)-one]: 6829.2; `COc1cc(CN(Cc2cn3c4c(c(N5CC(O)C5)c(F)cc4c2=O)OCC3C)[C@H]2CCCN(c3ccc(N)nc3)C2)ccn1` (stereo partly drawn) [Compound 38, 6-((((S)-1-(6-aminopyridin-3-yl)piperidin-3-yl)((2-methoxypyridin-4-yl)methyl)amino)methyl)-9-fluoro-10-(3-hydroxyazetidin-1-yl)-3-methyl-2H-[1,4]oxazino[2,3,4-ij]quinolin-7(3H)-one]: 672.0; `COc1cc(CN(Cc2cn3c4c(c(N5CCNCC5)c(F)cc4c2=O)OCC3C)[C@H]2CCCN(c3ccc(N)nc3)C2)ccn1` (stereo partly drawn) [Compound 39, 6-((((S)-1-(6-aminopyridin-3-yl)piperidin-3-yl)((2-methoxypyridin-4-yl)methyl)amino)methyl)-9-fluoro-3-methyl-10-(piperazin-1-yl)-2H-[1,4]oxazino[2,3,4-ij]quinolin-7(3H)-one]: 81.3. As to `COc1cc(CN(Cc2cn3c4c(c(N5CCNC(C)C5)c(F)cc4c2=O)OCC3C)[C@H]2CCCN(c3ccc(N)nc3)C2)ccn1` (stereo partly drawn) [Compound 40, 6-((((S)-1-(6-aminopyridin-3-yl)piperidin-3-yl)((2-methoxypyridin-4-yl)methyl)amino)methyl)-9-fluoro-3-methyl-10-(3-methylpiperazin-1-yl)-2H-[1,4]oxazino[2,3,4-ij]quinolin-7(3H)-one], the “Relative mRNA INFβ/GAPDH THP 1” value amounted to 352.8.

As for `COc1cc(CN(Cc2cn3c4c(c(N5CCNCC5C)c(F)cc4c2=O)OCC3C)[C@H]2CCCN(c3ccc(N)nc3)C2)ccn1` (stereo partly drawn) [Compound 41, 6-((((S)-1-(6-aminopyridin-3-yl)piperidin-3-yl)((2-methoxypyridin-4-yl)methyl)amino)methyl)-9-fluoro-3-methyl-10-(2-methylpiperazin-1-yl)-2H-[1,4]oxazino[2,3,4-ij]quinolin-7(3H)-one], the “Relative mRNA INFβ/GAPDH THP 1” value turned out to be 1.2. The figure for `CNC1CCCN(c2c(F)cc3c(=O)c(CN(Cc4ccnc(OC)c4)[C@H]4CCCN(c5ccc(N)nc5)C4)cn4c3c2OCC4C)C1.Cl` (stereo partly drawn) [Compound 42, 6-((((S)-1-(6-aminopyridin-3-yl)piperidin-3-yl)((2-methoxypyridin-4-yl)methyl)amino)methyl)-9-fluoro-3-methyl-10-(3-(methylamino)piperidin-1-yl)-2H-[1,4]oxazino[2,3,4-ij]quinolin-7(3H)-one Hydrochloride] is 12.1; for `COc1cc(CN(Cc2cn3c4c(c(N(C)C5CCCNC5)c(F)cc4c2=O)OCC3C)[C@H]2CCCN(c3ccc(N)nc3)C2)ccn1.Cl` (stereo partly drawn) [Compound 43, 6-((((S)-1-(6-aminopyridin-3-yl)piperidin-3-yl)((2-methoxypyridin-4-yl)methyl)amino)methyl)-9-fluoro-3-methyl-10-(methyl(piperidin-3-yl)amino)-2H-[1,4]oxazino[2,3,4-ij]quinolin-7(3H)-one Hydrochloride] it is 1.2.

As for `COc1cc(CN(Cc2cn3c4c(c(N5CCC6(CC5)CC(O)CO6)c(F)cc4c2=O)OCC3C)[C@H]2CCCN(c3ccc(N)nc3)C2)ccn1` (stereo partly drawn) [Compound 44, 6-((((S)-1-(6-aminopyridin-3-yl)piperidin-3-yl)((2-methoxypyridin-4-yl)methyl)amino)methyl)-9-fluoro-10-(3-hydroxy-1-oxa-8-azaspiro[4.5]decan-8-yl)-3-methyl-2H-[1,4]oxazino[2,3,4-ij]quinolin-7(3H)-one], the “Relative mRNA INFβ/GAPDH THP 1” value came to 642.4.

Turning to `COc1cc(CN(Cc2cn3c4c(c(N5CC6(CCN(C)CC6)C5)c(F)cc4c2=O)OCC3C)[C@H]2CCCN(c3ccc(N)nc3)C2)ccn1` (stereo partly drawn) [Compound 45, 6-((((S)-1-(6-aminopyridin-3-yl)piperidin-3-yl)((2-methoxypyridin-4-yl)methyl)amino)methyl)-9-fluoro-3-methyl-10-(7-methyl-2,7-diazaspiro[3.5]nonan-2-yl)-2H-[1,4]oxazino[2,3,4-ij]quinolin-7(3H)-one], the “Relative mRNA INFβ/GAPDH THP 1” value is 595.1. Next, `COc1cc(CN(Cc2cn3c4c(c(N5CC6CC(F)(F)CC6C5)c(F)cc4c2=O)OCC3C)[C@H]2CCCN(c3ccc(N)nc3)C2)ccn1` (stereo partly drawn) [Compound 46, 6-((((S)-1-(6-aminopyridin-3-yl)piperidin-3-yl)((2-methoxypyridin-4-yl)methyl)amino)methyl)-10-(5,5-difluorohexahydrocyclopenta[c]pyrrol-2(1H)-yl)-9-fluoro-3-methyl-2H-[1,4]oxazino[2,3,4-ij]quinolin-7(3H)-one]: 691.4. For `COc1cc(CN(Cc2cn3c4c(c(F)c(F)cc4c2=O)OCCC3)[C@H]2CCCN(c3ccc(N)nc3)C2)ccn1` [Compound 47, (S)-7-(((1-(6-aminopyridin-3-yl)piperidin-3-yl)((2-methoxypyridin-4-yl)methyl)amino)methyl)-10,11-difluoro-3,4-dihydro-[1,4]oxazepino[2,3,4-ij]quinolin-8(2H)-one], the “Relative mRNA INFβ/GAPDH THP 1” value was 710.4. The figure for `COc1cc(CN(Cc2cn3c4c(c(F)c(F)cc4c2=O)OCC3(C)C)[C@H]2CCCN(c3ccc(N)nc3)C2)ccn1` [Compound 48, (S)-6-(((1-(6-aminopyridin-3-yl)piperidin-3-yl)((2-methoxypyridin-4-yl)methyl)amino)methyl)-9,10-difluoro-3,3-dimethyl-2H-[1,4]oxazino[2,3,4-ij]quinolin-7(3H)-one] is 1202.3.

`COc1cc(CN(Cc2cn3c4c(c(F)c(F)cc4c2=O)OC2(CCC2)C3)[C@H]2CCCN(c3ccc(N)nc3)C2)ccn1` [Compound 49, (S)-6-(((1-(6-aminopyridin-3-yl)piperidin-3-yl)((2-methoxypyridin-4-yl)methyl)amino)methyl)-9,10-difluorospiro[[1,4]oxazino[2,3,4-ij]quinoline-2,1′-cyclobutan]-7(3H)-one]: the “Relative mRNA INFβ/GAPDH THP 1” value stood at 5276.2.
